# Results published in patent publication US20070112035A1, “Substituted oxyarenes” (BAYER CROPSCIENCE AKTIENGESELLSCHAFT, priority 2003, published 2007).
# Like-named read-outs stand apart in the source and are kept apart here.
# What was measured:
# [1] = test system: Heliothis armigera larvae; assay: Heliothis armigera test (soy sprouts, immersion); assay type: in vivo; conditions: Helicoverpa armigera, 168 h, 100 ppm active substance, after 7 days
# Procedure: (§1) Solvent: 7 Parts by weight of dimethylformamide
# (§2) Emulsifier: 2 Parts by weight of alkyl-aryl polyglycol ether
# (§3) For the production of a practical active agent preparation, one mixes 1 part by weight of active substance with the specified amount of solvent and emulsifier and dilutes the concentrate to the desired concentration with water containing an emulsifier.
# Soy sprouts (Glycine max) are treated through immersion in the active substance preparation of the desired concentration and filled with Heliothis armigera larvae, while the leaves are still moist.
# (§4) After the desired time the mortality in % is determined. In doing so, 100% means that all larvae were killed; 0% means that no larvae were killed.
# [2] = test system: Meloidogyne incognita egg/larvae suspension; assay: Meloidogyne test (gall formation on lettuce); assay type: in vivo; conditions: 20 ppm active substance; nematicidal effect by gall formation, 100% = no galls
# Text: Meloidogyne Test Solvent: 7 Parts by weight of dimethylformamide Emulsifier: 2 Parts by weight of alkyl-aryl polyglycol ether For the production of a practical active agent preparation, one mixes 1 part by weight of active substance with the specified amount of solvent and emulsifier and dilutes the concentrate to the desired concentration with water. Vessels are filled with sand, active substance solution, Meloidogyne incognita egg/larvae suspension and lettuce seeds. The lettuce seeds germinate and the seedlings grow. The galls grow on the roots. After the desired time, the nematicidal effect is determined by means of gall formation in %. In doing so, 100% means that no galls were found; 0% means that the number of galls on the treated plants corresponds to the untreated control.
# [3] = test system: cabbage moth larvae (Plutella xylostella); assay: Plutella test (cabbage leaves, immersion); assay type: in vivo
# Procedure: as §1, §2, §3
# Cabbage leaves (Brassica oleracea) are treated through immersion in the active substance preparation of the desired concentration and filled with cabbage moth larvae (Plutella xylostella), while the leaves are still moist.
# as §4
# [4] = test system: fall armyworm larvae (Spodoptera exigua); assay: Spodoptera exigua test (cabbage leaves, immersion); assay type: in vivo
# Procedure: as §1, §2, §3
# Cabbage leaves (Brassica oleracea) are treated through immersion in the active substance preparation of the desired concentration and filled with fall armyworm larvae (Spodoptera exigua), while the leaves are still moist.
# as §4
# [5] = test system: fall armyworm larvae (Spodoptera frugiperda); assay: Spodoptera frugiperda test (spray treatment); assay type: in vivo; conditions: 100 ppm active substance, maize leaf slices
# Text: Spodoptera frugiperda Test (Spray Treatment) Solvent: 78 Parts by weight of acetone • • 1.5 Parts by weight of dimethylformamide Emulsifier: 0.5 Parts by weight of alkyl-aryl polyglycol ether For the production of a practical active agent preparation, one mixes 1 part by weight of active substance with the specified amount of solvent and emulsifier and dilutes the concentrate to the desired concentration with water containing an emulsifier. Maize leaf slices (Zea mays) are sprayed with an active substance preparation of the desired concentration and filled with fall armyworm larvae (Spodoptera frugiperda) after drying. After the desired time the effect in % is determined. In doing so, 100% means that all larvae were killed; 0% means that no larvae were killed.
# [6] = test system: common spider mite (Tetranychus urticae); assay: Tetranychus test (OP-resistant/spray treatment); assay type: in vivo; conditions: 100 ppm active substance, spray treatment, bean leaf slices, OP-resistant
# Text: Tetranychus Test (OP-Resistant/Spray Treatment)
# Solvent: 78 Parts by weight of acetone • • 1.5 Parts by weight of dimethylformamide
# Emulsifier: 0.5 Parts by weight of alkyl-aryl polyglycol ether
# as §3
# Bean leaf slices (Phaseolus vulgaris) that are affected by all stages of the common spider mite (Tetranychus urticae) are sprayed with a active substance preparation of the desired concentration.
# After the desired time the effect in % is determined. In doing so, 100% means that all spider mites were killed; 0% means that no spider mites were killed.
# log P (physical data) = assay type: physicochemical
# [7] = 100 ppm active substance, after 7 days, cabbage leaves
Compound,Effect in % after 7 days [5] [%],Effect in % after 7 days [6] [%],other results
"COc1c(Cl)cc(OCC=C(Cl)Cl)cc1C1=NOC(CCCOc2ccc(C(F)(F)F)cn2)C1 (racemic) [Example I-1, (R/S)-3-(2-methoxy-3-chloro-5-(1,1-dichloro-1-propen-3-oxy)-phenyl)-5-((5-trifluormethylpyridin-2-yl)-3-(propyl)ether-1-yl)-Δ^2-isoxazoline]",100,100,"mortality at 100 ppm [1]: 100%; Effect in % after 14 days [2]: 80%; mortality at 100 ppm ([3]; Plutella xylostella, 168 h): 100%; mortality at 100 ppm ([4]; Spodoptera exigua, 168 h): 100%"
"COc1c(Cl)cc(OCC=C(Cl)Cl)cc1C1=NOC(COc2ccc(C(F)(F)F)cn2)C1 (racemic) [Example I-5, (R/S)-3-(2-methoxy-3-chloro-5-(dichlorpropenoxy)phenyl)-5-((5-trifluormethylpyridin-2-yl)-2-(methyl)ether-1-yl)Δ^2-isoxazoline]",10,,
"COc1c(Cl)cc(OCC=C(Cl)Cl)cc1C1=NOC(CCOc2ccc(OCC(F)(F)F)nc2)C1 (racemic) [Example I-6, (R/S)-3-(2-methoxy-3-chloro-5-(dichloropropenoxy)phenyl)-5-((6-trifluorethoxypyridin-3-yl)-2-(ethyl)ether-1-yl)Δ^2-isoxazoline]",100,,"mortality [3, 7]: 100%; mortality [4, 7]: 100%"
"COc1c(Cl)cc(OCC=C(Cl)Cl)cc1C1=NOC(CCCOc2ccc(OCC(F)(F)F)nc2)C1 (racemic) [Example I-7, (R/S)-3-(2-methoxy-3-chloro-5-(dichloropropenoxy)phenyl)-5-((6-trifluorethoxypyridin-3-yl)-3-(propyl)ether-1-yl)Δ^2-isoxazoline]",100,80,
"COc1c(Cl)cc(OCC=C(Cl)Cl)cc1C1=NOC(CCCCOc2ccc(C(F)(F)F)cn2)C1 (racemic) [Example I-10, (R/S)-3-(2-methoxy-3-chloro-5-(dichloropropenoxy)phenyl)-5-((5-trifluormethylpyridin-2-yl)-4-(butyl)ether-1-yl)Δ^2-isoxazoline]",100,80,
"COc1c(Cl)cc(OCC=C(Cl)Cl)cc1C1=NOC(CCOc2ccc(OCC(F)(F)F)nc2)C1 (racemic) [Example I-11, (R/S)-3-(2-methoxy-3-chloro-5-(dichloropropenoxy)phenyl)-5-((6-trifluorethoxypyridin-3-yl)-2-(ethyl)ether-1-yl)Δ^2-isoxazoline]",100,,
"COc1c(Cl)cc(OCC=C(Cl)Cl)cc1-c1cc(CCOc2ccc(C(F)(F)F)cn2)on1 [Example I-9, 3-(2-methoxy-3-chloro-5-(dichloropropenoxy)phenyl)-5-((5-trifluormethylpyridin-2-yl)-2-(ethyl)ether-1-yl)isoxazole]",100,90,
"COc1ccc(OCC=C(Cl)Cl)cc1-c1noc(CCCOc2ccc(C(F)(F)F)cn2)n1 [Example I-127, 2-(3-{3-[5-(3,3-dichloro-allyloxy)-2-methoxy-phenyl]-[1,2,4]oxadiazol-5-yl}-propoxy)-5-trifluoromethyl-pyridine]",,,"logP (log P (physical data); neutral, read-out: log P (neutral)): 4.93"
"COc1c(Cl)cc(OCC=C(Cl)Cl)cc1-c1nc(CCCOc2ccc(C(F)(F)F)cn2)no1 [Example I-128, 2-(3-{5-[3-chloro-5-(3,3-dichloro-allyloxy)-2-methoxy-phenyl]-[1,2,4]oxadiazol-3-yl}-propoxy)-5-trifluoromethyl-pyridine]",,,logP (log P (physical data); read-out: log P): 5.99
"COc1c(Cl)cc(OCC=C(Cl)Cl)cc1C1=NC(CO)CO1 (centres unmarked) [{2-[3-chloro-5-(3,3-dichloro-allyloxy)-2-methoxy-phenyl]-4,5-dihydro-oxazol-4-yl}-methanol]",,,"logP (log P (physical data); pH=2.3, read-out: log P(pH=2.3)): 2.05"
